From patent publication US20230084978A1, “OPTIMIZATION OF PEPTIDE-MELANIN BINDING” (ASSITANCE PUBLIQUE - HÔPITAUX DE PARIS, priority 2020, published 2023)
Non-standard residues stand in square brackets, D forms with d. No end group written: not given here. Hyp = O=C(O)[C@@H]1C[C@@H](O)CN1

Experiment: Binding of peptides to synthetic melanin (Tricine-SDS-PAGE analysis)
Details: for peptide binding to melanin: binding-promoting amino-acid at NH2-terminal vs COOH terminal end; for Binding of peptides on synthetic melanin, Mel + peptide: L-Dopa polymerized first, peptide added (1/4); for Binding of peptides on synthetic melanin, Mel + peptide 2 hours at pH 7.4: filtered (10 kDa) preformed melanin; for Binding of peptides on synthetic melanin, Mel + peptide 2 hours at pH 7.4 / Binding of peptides on synthetic melanin, Mel + peptide 18 hours at pH 7.4 / Binding of peptides on synthetic melanin, Mel + peptide 18 hours at pH 8.5 / Binding of peptides on synthetic melanin, Mel + peptide 10 minutes / Binding of peptides on synthetic melanin, Mel + peptide 2 hours / Binding of peptides on synthetic melanin, Mel + peptide 18 hours: peptide/L-Dopa 1/4; for Binding of peptides on synthetic melanin, Mel + peptide 18 hours at pH 7.4 / Binding of peptides on synthetic melanin, Mel + peptide 18 hours at pH 8.5: filtered preformed melanin; for Binding of peptides on synthetic melanin, Peptide-Mel: peptide/L-Dopa 1/4 mixed, then 2 hours at pH 8.5 and 60° C.; for Binding of peptides on synthetic melanin, Mel + peptide 10 minutes / Binding of peptides on synthetic melanin, Mel + peptide 2 hours / Binding of peptides on synthetic melanin, Mel + peptide 18 hours: filtered preformed melanin at pH 7.5
From the text: The binding of the peptide to the melanin can be verified by Tricine-SDS-PAGE analysis as described in Carpentier; 2017 (op. cit.). Briefly, samples (peptide-Mel or peptide alone) are loaded on acrylamide gels. Following electrophoresis, the gels are stained with Coomassie Brilliant Blue R-250, allowing the quantification of the free peptide in the gel. The binding of peptides to melanin can be expressed as the ratio: [amount of unbound peptide in samples Peptide-Mel/amount of peptides in control samples containing peptides alone.
Peptides were mixed with L-Dopa (weight ratio peptide/L-Dopa=1/4 and 1/6 for gp100 and EphA2, respectively) then incubated for 2 hours at pH 8.5 and 60° C. under agitation to ensure oxygenation of the solution to generate nanoparticles of melanin-bound peptides (Peptide-Mel). Alternatively, L-Dopa alone (0.8 mg/ml) was polymerized into melanin for 2 h at pH 8.5 and 60° C. under agitation, before the peptides (weight ratio peptide/L-Dopa=1/4 and 1/6 for gp100 and EphA2, respectively) were added to the solution (Mel+peptide). Tricine-SDS-PAGE analysis was performed as described in Carpentier; 2017 (op. cit.). Briefly, samples (peptide-Mel or peptide alone) were loaded on acrylamide gels. Following electrophoresis, the gels were stained with Coomassie Brilliant Blue R-250 and imaged with the ChemiDoc XRS+ system (Bio-Rad Laboratory), allowing the quantification of the free peptide in the gel. The binding of peptides to melanin was expressed as the ratio: [amount of unbound peptide in samples Peptide-Mel/amount of peptides in control samples containing peptides alone]
First column (Peptide-Mel): L-Dopa (0.8 mg/ml) was mixed with peptides (weight ratio peptide/L-Dopa=1/4) then incubated for 2 hours at pH 8.5 and 60° C. to generate nanoparticles of melanin-bound peptides. Alternatively (second column; Mel+peptide), L-Dopa alone (0.8 mg/ml) was first polymerized into melanin for 2 h at pH 8.5 and 60° C. under vigorous agitation, before the peptides (weight ratio peptide/L-Dopa=1/4) were added to the solution and incubated for 2 hours at room temperature. In both cases, the percentage of peptides that bound to melanin was then quantified with SPS-page analysis, as described in table 1. (ND=not done)
L-Dopa (0.8 mg/ml) underwent an oxidative polymerization at pH 8.5 in aerobic conditions for 2 hours at 60° C. The reaction mixture was then filtered on a 10 kDa filter, and the retentate containing the synthetic melanin was resuspended at pH 7.5 in phosphate buffer. Peptides were then added (at the weight ratio peptide/L-Dopa=1/4) and the mixture was incubated for various periods of time and or pH. The percentage of peptides that bound to melanin was then quantified with SPS-page analysis, as described in table 1. (ND=not done).
L-Dopa (0.8 mg/ml) underwent an oxidative polymerization at pH 8.5 and 60° C. for 2 hours. The reaction mixture was then filtered on a 10 kDa filter, and the retentate containing the synthetic melanin was resuspended at pH 7.5 in phosphate buffer. Peptides were then added (at the weight ratio peptide/L-Dopa=1/4) and the mixture was incubated for various periods of time. Binding of the peptides was then quantified with SPS-page analysis, as described in table 1. (ND=not done)

Row | Substance | Binding of peptides on synthetic melanin, Mel + peptide (2 hours at room temperature) [%] | Binding of peptides on synthetic melanin, Mel + peptide 2 hours at pH 7.4 [%] | Binding of peptides on synthetic melanin, Mel + peptide 18 hours at pH 7.4 [%] | Binding of peptides on synthetic melanin, Mel + peptide 18 hours at pH 8.5 [%] | Binding of peptides on synthetic melanin, Peptide-Mel [%] | other results
1 | VYDFFVWL-X [SEQ ID NO: 20] |  |  |  |  |  | peptide binding to melanin: 55%
2 | Acetyl-R SIYRYYGL (Ac-RSIYRYYGL) [SEQ ID NO: 4] | 17 | 17 | 2 | 0 | 0 | melanin binding (in words), Peptide-Mel (peptide mixed with L-Dopa, 2 hours at pH 8.5): No binding
3 | Acetyl-R H SIYRYYGL (Ac-RHSIYRYYGL) [SEQ ID NO: 9] |  |  |  |  | 60 | 
4 | Acetyl-K SIYRYYGL (Ac-KSIYRYYGL) [SEQ ID NO: 7] |  | 0 | 31 | 62 |  | 
5 | Acetyl-R M SIYRYYGL (Ac-RMSIYRYYGL) [SEQ ID NO: 11] |  | 0 | 13 | 32 |  | 
6 | Acetyl-R W SIYRYYGL (Ac-RWSIYRYYGL) [SEQ ID NO: 14] | 0 | 0 |  |  | 56 | 
7 | SIYRYYGL [SEQ ID NO: 3, reference compound] | 0 | 0 | 28 | 31 | 90 | 
8 | HydroxP KVPRNQDWL ([Hyp]KVPRNQDWL) [SEQ ID NO: 16] |  |  |  |  |  | Binding of peptides on synthetic melanin, Mel + peptide 10 minutes: 12%; Binding of peptides on synthetic melanin, Mel + peptide 2 hours: 35%; Binding of peptides on synthetic melanin, Mel + peptide 18 hours: 100%
9 | C KVPRNQDWL (CKVPRNQDWL; Modified gp100 peptide) [SEQ ID NO: 17] |  |  |  |  |  | Binding of peptides on synthetic melanin, Mel + peptide 10 minutes: 9%; Binding of peptides on synthetic melanin, Mel + peptide 2 hours: 54%; Binding of peptides on synthetic melanin, Mel + peptide 18 hours: 99%; binding to melanin (in words), cysteine in oxidized or reduced state (preformed filtered melanin, 2 hours at room temperature): Binding was observed in both cases
10 | Acetyl-R F SIYRYYGL (Ac-RFSIYRYYGL) [SEQ ID NO: 13] | 0 | 0 |  |  | 5 | 
11 | Acetyl-R S SIYRYYGL (Ac-RSSIYRYYGL) [SEQ ID NO: 10] |  | 0 | 12 |  |  | 
12 | P KVPRNQDWL (PKVPRNQDWL; Modified gp100 peptide) [SEQ ID NO: 15] |  |  |  |  |  | Binding of peptides on synthetic melanin, Mel + peptide 10 minutes: 13%; Binding of peptides on synthetic melanin, Mel + peptide 2 hours: 11%; Binding of peptides on synthetic melanin, Mel + peptide 18 hours: 100%
13 | P SIYRYYGL (PSIYRYYGL; Modified test peptide) [SEQ ID NO: 5] | 7 | 7 | 22 | 41 | 87 | 
14 | X-VYDFFVWL [SEQ ID NO: 19] |  |  |  |  |  | peptide binding to melanin: 51%
